Assays:
[1] = system: velvet leaf; test: Seed treatment, plant growth inhibition index (Evaluation 11); assay type: in vivo; set-up: key: 0: No effect; 1: Growth of the root part was inhibited 50% or less compared with non-treated area.; 2: Growth of the root part was inhibited 50% or more compared with non-treated area.; 3: Growth of the root part was substantially inhibited.; 4: Germination was inhibited
Experimental: (§1) The compound of the present invention (2 mg) was dissolved in a 1.5% Tween dimethylformamide solution (100 μL) to use as a test chemical solution.
(§2) Eight mL of sterilized water was poured to a cherry cup (100Φ×45 mm) lined with a filter paper, subsequently 81.1 μL of the sterilized water was removed, and 81.1 μL of the test chemical solution was added such that a final concentration of the compound was 800 μM.
(§3) Further, cherry cups were similarly prepared such that a final concentration of the compound was 200 μM.
(§4) Seeds (Japanese millet: 3 grains, velvet leaf: 6 grains, Ragweed: 8 grains, morning glory: 2 grains) were planted on the filter paper in the cherry cups, followed by growing the plants in a thermostatic chamber at 25° C. under a light-dark cycle in which a light period is 12 hours and a dark period is 12 hours for 6 days.
(§5) In addition, with regards to the compound (9a) and the compound (9b), the plants were tested for 7 days.
(§6) Plant growth inhibition effects of the compounds were evaluated by conversion to indexes according to the following investigation criteria.

[2] = system: Japanese millet; test: as above; assay type: in vivo; set-up: key: 0: No effect; 1: Growth of the root part was inhibited 50% or less compared with non-treated area.; 2: Growth of the root part was inhibited 50% or more compared with non-treated area.; 3: Growth of the root part was substantially inhibited.; 4: Germination was inhibited
Experimental: as §1, §2, §3, §4, §5, §6

[3] = system: morning glory; test: as above; assay type: in vivo; set-up: key: 0: No effect; 1: Growth of the root part was inhibited 50% or less compared with non-treated area.; 2: Growth of the root part was inhibited 50% or more compared with non-treated area.; 3: Growth of the root part was substantially inhibited.; 4: Germination was inhibited
Experimental: as §1, §2, §3, §4, §5, §6

[4] = system: Ragweed; test: as above; assay type: in vivo; set-up: key: 0: No effect; 1: Growth of the root part was inhibited 50% or less compared with non-treated area.; 2: Growth of the root part was inhibited 50% or more compared with non-treated area.; 3: Growth of the root part was substantially inhibited.; 4: Germination was inhibited
Experimental: as §1, §2, §3, §4, §5, §6

[5] = system: thale cress; test: Plant growth inhibition index, thale cress on agar medium in test tube (Evaluation 8, 9); assay type: in vivo, thale cress (Col-0, wild-type strain); set-up: key: 0: No effect; 1: Growth of the root part was inhibited 50% or less compared with non-treated area.; 2: Growth of the root part was inhibited 50% or more compared with non-treated area.; 3: Growth of the root part was substantially inhibited.; 4: Germination was inhibited; conditions: for Index: Concentration 200 μM, 8 days (Evaluation 9, Table 2)
Experimental: 0.44% (w/v) Mixed salts for Murashige and Skoog medium (SIGMA), 1% (w/v) sucrose, and 0.05% (w/v) MES were mixed, and pH of the solution was adjusted to pH 5.7 with potassium hydroxide. 1.5% (w/v) Agar was added to the mixture, which was sterilized at 120° C. in an autoclave for 20 minutes. The test compound and dimethylformamide containing 1.5% of polyoxyethylenesorbitan monolaurate for a control experiment, were added at this stage and blended. In addition, the compound was used by adjusting an addition concentration to 200 μM. Four ml each of the medium was dispensed in sterile glass test tube ([…] RIKA GLASS CO., LTD.) to prepare agar medium.
As a plant material, Col-0, which is a wild-type strain of thale cress, was used.
Seeds, after their surfaces were sterilized, were planted on the agar medium, and the growth of the plant was carried out in a plant incubator (CFH-405) under the conditions of an illuminance of 3 at 23° C. with constant light. The plants on the agar medium were grown for 8 days in the chamber.
The plant growth inhibition effect of the compounds was evaluated by conversion to indexes according to the following investigation criteria.

[6] = system: velvet leaf; test: Spray treatment to stems and leaves, killing weed index (Evaluation 10); assay type: in vivo; conditions: 2000 g active ingredient per hectare, two weeks later
Experimental: (§7) POA allyl phenyl ether (4.1 parts by weight), POE-POP glycol (1 part by weight), POE sorbitan laurate (0.8 parts by weight), glycerin (2.6 parts by weight), dimethylformamide (65.9 parts by weight), N-methylpyrrolidone (5.1 parts by weight), cyclohexanone (15.4 parts by weight), and aromatic hydrocarbon (5.1 parts by weight) were mixed and dissolved to prepare an emulsion. The compounds of the present invention (4 mg) were dissolved in this emulsion (100 μL) to prepare a test emulsion. In addition, POA means “polyoxyalkylene”, POE means “polyoxyethylene”, and POP means “polyoxypropylene.”
(§8) Four hundred μL of the above test emulsion was diluted with 7600 μL of water to use as a test spray liquid.
(§9) Further, 400 μL of the above test emulsion was diluted with 1600 μL of a 1% Tween20 aqueous solution to use as a spray liquid for a small amount spray test.
(§10) For a comparative spray liquid, 53 μL of a 30% pendimethalin emulsion (Gogosan emulsion: manufactured by BASF Japan) as a control pesticides was diluted with 7947 μL of water. Further, for a comparative spray liquid for a small amount spray test, 53 μL of the 30% pendimethalin emulsion was diluted with 1947 μL of water.
(§11) A 150 cm^2 pot was filled with a soil, seeds of each purple amaranth, Japanese bristlegrass, southern crabgrass, and velvet leaf were sown on the surface layer, lightly covered with a soil and grown in a greenhouse. When each plant grew to a plant height of 2 to 9 cm, the test spray liquid was sprayed to the stem and leaf parts with a small spraying machine such that an active ingredient amount was 2000 g per hectare and a sprayed liquid amount was 1000 L per hectare.
(§12) Similarly, the test spray liquid for a small amount spray test was sprayed to the stem and leaf parts with a small spraying machine such that an active ingredient amount was 2000 g per hectare and a sprayed liquid amount was 250 L per hectare.
(§13) Two weeks later, the above-ground grass weight in non-treated areas and the above-ground grass weight in treated areas, by the weed, were measured to calculate a killing weed rate by the following calculating formula.
(§14) (a) Calculating Formula of Weeding Rate Killing weed rate (%)=(above-ground grass weight in non-treated area−above-ground grass weight in treated area)/(above-ground grass weight in non-treated area)×100 (b) Killing Weed Indexes
(§15) The obtained killing weed rates were evaluated, such that a killing weed index was “10” when a killing weed rate is 100%, as “9” when a killing weed rate is 99% to 90%, “8” when a killing weed rate is 89% to 80%, “7” when a killing weed rate is 79% to 70%, “6” when a killing weed rate is 69% to 60%, “5” when a killing weed rate is 59% to 50%, “4” when a killing weed rate is 49% to 40%, “3” when a killing weed rate is 39% to 30%, “2” when a killing weed rate is 29% to 20%, “1” when a killing weed rate is 19% to 10%, and “0” when a killing weed rate is 9% to 0%.

[7] = system: southern crabgrass; test: as above; assay type: in vivo; conditions: 2000 g active ingredient per hectare, two weeks later
Experimental: as §7, §8, §9, §10, §11, §12, §13, §14, §15

[8] = system: Japanese bristlegrass; test: as above; assay type: in vivo; conditions: 2000 g active ingredient per hectare, sprayed liquid amount 250 L/ha, two weeks later
Experimental: as §7, §8, §9, §10, §11, §12, §13, §14, §15

[9] = system: purple amaranth; test: as above; assay type: in vivo; conditions: 2000 g active ingredient per hectare, two weeks later
Experimental: as §7, §8, §9, §10, §11, §12, §13, §14, §15

[10] = 200 μM, 6 days (9a, 9b: 7 days)
[11] = sprayed liquid amount 1000 L/ha

Row | SMILES | plant growth inhibition index, Velvet leaf [1, 10] | plant growth inhibition index, Velvet leaf ([1]; 800 μM, 6 days) | plant growth inhibition index, Japanese millet [2, 10] | plant growth inhibition index, Japanese millet ([2]; 800 μM, 6 days) | plant growth inhibition index, Morning glory [3, 10] | plant growth inhibition index, Morning glory ([3]; 800 μM, 6 days) | plant growth inhibition index, Ragweed [4, 10] | plant growth inhibition index, Ragweed ([4]; 800 μM, 6 days) | index on the plant growth inhibition effect ([5]; 200 μM, 8 days (Evaluation 8)) | Index [5] | killing weed index, Velvet leaf ([6]; sprayed liquid amount 250 L/ha) | killing weed index, Velvet leaf [6, 11] | killing weed index, Southern crabgrass ([7]; sprayed liquid amount 250 L/ha) | killing weed index, Southern crabgrass [7, 11] | killing weed index, Japanese bristlegrass [8] | killing weed index, Purple amaranth ([9]; sprayed liquid amount 250 L/ha) | killing weed index, Purple amaranth [9, 11]
1 | O=C(O)c1cccn1OCc1ccc(Oc2ccccc2)cc1 [Compound 8f] | 0 | 5 (Growth of the stem and leave parts was inhibited 50% or more compared with non-treated area, or growth of the only root part was inhibited 100% or more compared with non-treated area.) | 3 (Growth of the stem and leave parts was inhibited 30% or more compared with non-treated area, or growth of the only root part was inhibited 60% or more compared with non-treated area.) | 4 (Growth of the stem and leave parts was inhibited 40% or more compared with non-treated area, or growth of the only root part was inhibited 80% or more compared with non-treated area.) | 0 | 0 | 0 | 5 (Growth of the stem and leave parts was inhibited 50% or more compared with non-treated area, or growth of the only root part was inhibited 100% or more compared with non-treated area.) | 3 | – | – | – | – | – | – | – | –
2 | CCCCCCCCCOn1cccc1C(=O)N(C)C [Compound 9g] | 3 (Growth of the stem and leave parts was inhibited 30% or more compared with non-treated area, or growth of the only root part was inhibited 60% or more compared with non-treated area.) | 3 (Growth of the stem and leave parts was inhibited 30% or more compared with non-treated area, or growth of the only root part was inhibited 60% or more compared with non-treated area.) | 3 (Growth of the stem and leave parts was inhibited 30% or more compared with non-treated area, or growth of the only root part was inhibited 60% or more compared with non-treated area.) | 4 (Growth of the stem and leave parts was inhibited 40% or more compared with non-treated area, or growth of the only root part was inhibited 80% or more compared with non-treated area.) | 0 | 0 | 5 (Growth of the stem and leave parts was inhibited 50% or more compared with non-treated area, or growth of the only root part was inhibited 100% or more compared with non-treated area.) | 7 (Growth of the stem and leave parts was inhibited 70% or more compared with non-treated area.) | – | 3 | – | – | – | – | – | – | –
3 | CCCCCCCCCOn1cccc1C(=O)N1CCOCC1 [Compound 9h] | 3 (Growth of the stem and leave parts was inhibited 30% or more compared with non-treated area, or growth of the only root part was inhibited 60% or more compared with non-treated area.) | 5 (Growth of the stem and leave parts was inhibited 50% or more compared with non-treated area, or growth of the only root part was inhibited 100% or more compared with non-treated area.) | 3 (Growth of the stem and leave parts was inhibited 30% or more compared with non-treated area, or growth of the only root part was inhibited 60% or more compared with non-treated area.) | 6 (Growth of the stem and leave parts was inhibited 60% or more compared with non-treated area.) | 0 | 4 (Growth of the stem and leave parts was inhibited 40% or more compared with non-treated area, or growth of the only root part was inhibited 80% or more compared with non-treated area.) | 0 | 6 (Growth of the stem and leave parts was inhibited 60% or more compared with non-treated area.) | – | 3 | – | – | – | – | – | – | –
4 | CCCCCOn1cc(-c2cccnc2)cc1C(=O)O [Compound 9i] | 0 | 6 (Growth of the stem and leave parts was inhibited 60% or more compared with non-treated area.) | 3 (Growth of the stem and leave parts was inhibited 30% or more compared with non-treated area, or growth of the only root part was inhibited 60% or more compared with non-treated area.) | 4 (Growth of the stem and leave parts was inhibited 40% or more compared with non-treated area, or growth of the only root part was inhibited 80% or more compared with non-treated area.) | 0 | 10 | 0 | 4 (Growth of the stem and leave parts was inhibited 40% or more compared with non-treated area, or growth of the only root part was inhibited 80% or more compared with non-treated area.) | – | 2 (Growth of the root part was inhibited 50% or more compared with non-treated area.) | – | – | – | – | – | – | –
5 | CCC(CC)Nc1c([N+](=O)[O-])cc(C)c(C)c1[N+](=O)[O-] [pendimethalin, reference compound] | – | – | – | – | – | – | – | – | – | – | 5 (“5” when a killing weed rate is 59% to 50%) | 4 (“4” when a killing weed rate is 49% to 40%) | 6 (“6” when a killing weed rate is 69% to 60%) | 6 (“6” when a killing weed rate is 69% to 60%) | 6 (“6” when a killing weed rate is 69% to 60%) | 6 (“6” when a killing weed rate is 69% to 60%) | 0 (“0” when a killing weed rate is 9% to 0%)

Source: patent US11685716B2, “Plant growth inhibiting agent, and plant growth inhibiting method using same” (NATIONAL UNIVERSITY CORPORATION KUMAMOTO UNIVERSITY, priority 2017, dated 2023)
